According to article PMC6476181 (ChemMedChem, 2019):

Experiments:
Cot = settings: ref 10a; cited from earlier work
MEK4 [1] = molecular target: T1, MEK4 (Homo sapiens, UniProt P45985); assay: TR-FRET displacement of active site tracer; type: binding; settings: 10 µM
T1 sequence (P45985 1-399): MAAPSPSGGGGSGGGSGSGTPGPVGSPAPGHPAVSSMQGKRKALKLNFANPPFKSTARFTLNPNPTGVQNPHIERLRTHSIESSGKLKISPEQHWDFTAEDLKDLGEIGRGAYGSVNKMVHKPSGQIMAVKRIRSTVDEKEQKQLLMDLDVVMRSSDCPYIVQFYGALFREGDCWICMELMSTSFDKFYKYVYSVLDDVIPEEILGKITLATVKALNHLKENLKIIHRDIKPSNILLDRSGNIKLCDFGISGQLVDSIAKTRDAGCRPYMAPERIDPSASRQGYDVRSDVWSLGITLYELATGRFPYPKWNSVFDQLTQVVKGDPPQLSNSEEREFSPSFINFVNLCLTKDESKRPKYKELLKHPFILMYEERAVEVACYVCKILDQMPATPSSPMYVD

57 diverse kinases = assay: Kinase selectivity panel of 57 diverse kinases; type: biochemical; settings: 10 µM
[2] = test system: cancer cell motility and migration; assay: Wound scratch assay; type: cell-based
[3] = test system: proliferation and viability of cells; assay: Trypan blue exclusion, cells treated for 3 days; type: cell-based; settings: comparison against genistein at 10 µM, p < 0.05
MEK4 [4] = molecular target: T1, MEK4; settings: cited from earlier work
MEK7 = molecular target: T2, MEK7 (Homo sapiens, UniProt O14733); settings: cited from earlier work
T2 sequence (O14733 1-419): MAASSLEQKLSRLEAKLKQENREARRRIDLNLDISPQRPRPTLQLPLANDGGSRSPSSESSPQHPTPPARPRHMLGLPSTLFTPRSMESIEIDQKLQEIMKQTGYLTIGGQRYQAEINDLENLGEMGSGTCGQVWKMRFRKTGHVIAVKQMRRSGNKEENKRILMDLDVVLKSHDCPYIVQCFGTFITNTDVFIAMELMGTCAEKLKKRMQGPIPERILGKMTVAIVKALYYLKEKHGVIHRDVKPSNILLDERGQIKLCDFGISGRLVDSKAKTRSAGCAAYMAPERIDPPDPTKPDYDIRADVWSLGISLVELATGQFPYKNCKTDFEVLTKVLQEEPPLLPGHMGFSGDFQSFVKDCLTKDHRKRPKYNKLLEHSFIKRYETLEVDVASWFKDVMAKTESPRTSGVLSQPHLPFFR

O=c1c(-c2ccc(O)c(O)c2)coc2cc(O)ccc12 [THIF, 7, 3’, 4’-trihydroxyisoflavone]
inhibition of Cot activity (Cot): inhibits Cot activity

CN[C@@H]1C[C@H]2O[C@@](C)([C@@H]1OC)n1c3ccccc3c3c4c(c5c6ccccc6n2c5c31)C(=O)NC4 [staurosporine]
TR-FRET ratio, displacement of tracer bound to MEK4 active site (MEK4 [1]): background levels

O=C(O)c1ccc(-c2n[nH]c3cc(F)ccc23)cc1 [Compound 6ff, 4-(6-fluoro-2H-indazol-3-yl)benzoic acid]
number of kinases inhibited > 35% out of 57 tested (57 diverse kinases): 12
S(35) value (57 diverse kinases; 57 kinases): 0.21
efficacy in wound scratch assay ([2]; 10 µM): no efficacy
efficacy in wound scratch assay ([2]; 25 µM): no efficacy
toxicity (proliferation and viability, trypan blue exclusion) [3]: less toxicity compared to the promiscuous kinase inhibitor genistein

COc1ccc2c(Cc3ccc(O[Si](C)(C)C(C)(C)C)cc3)c3[n+](cc2c1OC)CCc1cc2c(cc1-3)OCO2 [HWY336]
inhibition of MEK4 (MEK4 [4]): inhibits both MEK4 and MEK7
inhibition of MEK7 (MEK7): inhibits both MEK4 and MEK7
